Experiment [1] is described as follows: viability loss in THP-1 monocytes – THP-1 cells, cytotoxicity control for Vif-APOBEC3G degradation inhibitor project, dose response (AID 1117359). The conditions noted are these: THP-1. Format: functional.
Experiment [2] has as its target Paired box protein Pax-8 (Homo sapiens, UniProt Q06710). Kind of experiment: PAX8 transcriptional activity inhibition in RMG-I – RMG-I cells, luciferase, cherry-pick, dose response (AID 687027).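 Also: luciferase reporter driven by Pax8 target thyroperoxidase promoter measured by SteadyGlo luminescence.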 Format: functional, cell-based.
Experiment [3] is described as follows: IGROV1 cell killing – plate reader, dry powder samples, PAX8 inhibitor project, dose response (AID 743043). Format: functional, cell-based. Conditions: IGROV-1.
Experiment [4] is described as follows: OVCAR8 cell viability loss – plate reader, dry powder samples, PAX8 project, dose response (AID 743197). Format: functional, cell-based. Conditions: OVCAR-8.
Experiment [5] is described as follows: microbe, parasite or virus in culture. Format: functional. The conditions noted are these: Mycobacterium tuberculosis.
Experiment [6] in a line: A Cell Based Secondary Assay To Explore Cytotoxicity of Compounds that Sensitize Mycobacterium Tuberculosis to Beta-Lactam Antibiotics. The format is functional.
The nature of experiment [7]: cells. The format is functional, cell-based.
Experiment [8] is described as follows: cells. The format is functional, cell-based. The source holds these as a separate data set.
Experiment [9] in a line: HEK-293T viability loss after treatment – luminescence, T-cell screen hits, cytotoxicity control for TCR NF-kB inhibitor project, dose response (AID 489026).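 Also: cells exposed to compound about 14 hours before the viability readout.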 The format is functional, cell-based.
In experiment [10] the test system is BJ. Kind of experiment: BJ-TERT fibroblast viability loss – cell-based, RAS-independent, luminescence, dose response (AID 1933). The format is functional. The conditions noted are these: Homo sapiens.
Experiment [11] can be described thus: DRD fibroblast viability loss – cell-based, non-viral oncogenic, luminescence, dose response (AID 1934). The format is functional. Conditions: Homo sapiens.
Experiment [12] has as its system BJ. Kind of experiment: BJ-TERT-LT-ST fibroblast viability loss – cell-based, RAS-independent, luminescence, dose response (AID 1935).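 Also: BJ fibroblasts immortalized with TERT plus LT and ST oncogenes.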 Format: functional. Conditions: Homo sapiens.
The subject of experiment [13] is BJ. Briefly: cells. Conditions: Homo sapiens. The format is functional, cell-based.
Experiment [14] has as its target Eukaryotic translation initiation factor 4E (Mus musculus, UniProt P63073). Briefly: blockers of eIF4G binding by eIF4E – biochemical, TR-FRET, dose response (AID 855).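 Also: potency for disrupting eIF4E binding to eIF4GI seen as loss of FRET.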 The format is functional. Background: In TR-FRET formats the signal depends on donor and acceptor labels being close together.
Experiment [15] in a line: growth inhibition of PfATP4-mutant resistant parasites – NITD609-resistant line, SYBR Green, dry powder, dose response (AID 1159571).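 Also: parasites synchronized at ring stage by sorbitol before testing.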 The format is functional, cell-based.
Experiment [16] is described as follows: Dd2 malaria parasite growth inhibition potency – SYBR Green, dry powder samples, dose response (AID 1159566).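 Also: potency for growth inhibition with lower SYBR green DNA signal.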 Format: functional, cell-based.
Experiment [17] can be described thus: growth inhibition of yeast DHODH-expressing 3D7 parasites – SYBR Green, dry powder samples, dose response (AID 1159570).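 Also: parasite growth measured after 72 hours of compound exposure.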 Format: functional, cell-based.
Experiment [18] is described as follows: blockers of bursicon-stimulated LGR2 cAMP reporter – cell-based, HEK293, CRE-luciferase reporter, cherry pick, set 2, dose response (AID 743343).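 Also: transfected cells were stimulated with diluted bursicon conditioned medium after compound addition.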 The format is functional. In general terms: Reporter assays use an easily measured gene product as a stand-in for the process of interest.
Experiment [19] can be described thus: reduced cellular PGC1a acetyl-lysine signal – cell-based, cherry-picked samples, dose response (AID 720514).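 Also: potency may reflect raised or lowered acetylation signal.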 Format: functional.
Experiment [20] is described as follows: cells. Format: functional, cell-based. This is another data set of the same source.
In experiment [21] the target is T1, Trace amine-associated receptor 1 (Homo sapiens, UniProt Q96RJ0).
T1 sequence (Q96RJ0 whole entry): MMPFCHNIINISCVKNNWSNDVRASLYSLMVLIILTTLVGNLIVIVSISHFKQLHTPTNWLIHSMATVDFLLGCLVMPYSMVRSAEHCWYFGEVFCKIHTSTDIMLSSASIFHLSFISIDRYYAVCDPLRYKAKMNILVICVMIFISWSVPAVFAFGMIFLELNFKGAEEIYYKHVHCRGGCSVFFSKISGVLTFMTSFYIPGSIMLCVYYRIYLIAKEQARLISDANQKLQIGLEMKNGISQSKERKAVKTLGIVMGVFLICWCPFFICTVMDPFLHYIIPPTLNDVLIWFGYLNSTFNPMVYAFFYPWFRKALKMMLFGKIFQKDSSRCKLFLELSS
Briefly: Counterscreen for agonists of the human trace amine associated receptor 1 (hTAAR1): Fluorescence-based cell-based high throughput dose response assay to identify hTAAR1 agonist that also desensitize TAAR1 receptor response. The format is functional.

In experiment [22] the target is T1, Trace amine-associated receptor 1. Briefly: Fluorescence-based cell-based high throughput dose response assay to identify agonists of the human trace amine associated receptor 1 (TAAR1). The format is functional.
Experiment [23] in a line: cells. Format: functional, cell-based. This is another data set of the same source.

Each structure is given as a SMILES string. Activity calls are given as the source filed them.

As usually defined, the AC50 is the concentration at which the activity in the assay is half-maximal. For orientation: EC50 means the concentration that produces a half-maximal response. Usually IC50 stands for the concentration that inhibits the measured activity by half.

Sequence of Eukaryotic translation initiation factor 4E (P63073 whole entry): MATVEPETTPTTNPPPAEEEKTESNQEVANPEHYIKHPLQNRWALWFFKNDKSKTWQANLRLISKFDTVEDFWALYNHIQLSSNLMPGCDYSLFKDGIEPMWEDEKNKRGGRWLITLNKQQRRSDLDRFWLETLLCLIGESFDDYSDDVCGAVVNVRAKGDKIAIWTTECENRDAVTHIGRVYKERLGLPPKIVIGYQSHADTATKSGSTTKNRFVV
Sequence of Paired box protein Pax-8 (Q06710 whole entry): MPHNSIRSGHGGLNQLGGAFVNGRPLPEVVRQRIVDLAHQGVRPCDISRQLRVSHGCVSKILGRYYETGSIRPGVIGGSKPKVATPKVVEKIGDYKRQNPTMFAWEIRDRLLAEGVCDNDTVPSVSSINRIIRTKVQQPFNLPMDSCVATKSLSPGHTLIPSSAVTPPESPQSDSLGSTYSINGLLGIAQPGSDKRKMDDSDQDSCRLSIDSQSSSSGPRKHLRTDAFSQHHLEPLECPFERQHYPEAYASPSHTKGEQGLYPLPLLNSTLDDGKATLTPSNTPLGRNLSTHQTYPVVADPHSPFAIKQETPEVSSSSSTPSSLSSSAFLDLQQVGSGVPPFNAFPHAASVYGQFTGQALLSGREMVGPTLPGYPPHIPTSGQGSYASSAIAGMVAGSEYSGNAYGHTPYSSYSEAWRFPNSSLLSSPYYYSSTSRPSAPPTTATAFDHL

For `CCCC(C)NC(=O)CSCc1ccc(OC)cc1` (stereo not drawn), the CC50 in experiment [1] is > 40 µM (active).

Consider `C[C@H]1CCCCO[C@H](CN(C)C(=O)Nc2cccc3ccccc23)[C@@H](C)CN([C@@H](C)CO)C(=O)c2cc(NS(=O)(=O)c3ccc(Cl)cc3)ccc2O1`, for which the AC50 in experiment [2] is 4.51 µM (active); in experiment [3] it was 55.2 µM (active); in experiment [4] it was > 70 µM (inactive).

In the case of `COc1cccc(C(=O)/C=C2\Sc3ccccc3N2C)c1`, in experiment [5], the CC50 is > 40 µM (active).

Regarding `O=C(Cc1cccc2ccccc12)N/N=C/c1ccc(OC(=O)/C=C/c2ccco2)cc1`, in experiment [6], the CC50 is 31.2 µM (active).

As to `O=S(=O)(/C=C/c1ccccc1)N1CCNCC1`, the EC50 in [7] and in experiment [8] was > 350 µM (not active) throughout.

As to `O=C(Nc1ccc(CSc2ccccc2)cc1)c1ccc(CN2CCOCC2)cc1`, the IC50 in experiment [9] is > 80 µM (inactive).

With `Cc1nc(N2CCCCC2)sc1C(=O)c1cccc([N+](=O)[O-])c1`, the EC50 in experiment [10], in experiment [11], in [12] and in experiment [13] was > 150 µM (not active) each time.

As for `COc1ccc(C(CC(=O)NCc2ccccc2)Sc2n[nH]c(-c3ccccc3)n2)cc1` (stereo not drawn), the EC50 in experiment [7] and in [8] was > 350 µM (not active) each time.

Turning to `C[C@@H]1CN([C@H](C)CO)C(=O)c2cc(NC(=O)Nc3ccc(F)cc3)ccc2O[C@@H](C)CCCCO[C@@H]1CN(C)Cc1ccc2c(c1)OCO2`, the AC50 in experiment [2] is 10.9 µM (active); in experiment [4], 58.6 µM (active).

In the case of `CCN(CC(=O)Nc1ccccc1-c1ccccc1)Cc1nc(O)c2ccccc2n1`, the EC50 is 20.1 µM (active) in experiment [10], 17.9 µM (active) in [11], > 75 µM (not active) in experiment [12] and 67.2 µM (active) in experiment [13].

With `COc1ccc(-c2noc(CSc3nc(N)c(-c4ccccc4)c(=O)[nH]3)n2)cc1OC`, the IC50 in [14] was > 64 µM (inactive).

In the case of `C[C@H](CO)N1C[C@H](C)[C@@H](CN(C)CC2CCCC2)Oc2ncc(C#CCc3ccccc3)cc2C1=O`, the AC50 in experiment [15] is 0.28 µM (active); in experiment [16] it was 0.59 µM (active); in experiment [17], 3.18 µM (active).

As to `Clc1ccc2c(c1)C(c1ccccc1Cl)=NCc1nnc(N3CCN(CCOc4ccccc4)CC3)n1-2`, in experiment [5], the CC50 is > 40 µM (active).

In the case of `CCc1ccc2ncc(S(=O)(=O)c3ccc(C)c(C)c3)c(N3CCCC3)c2c1`, the AC50 in [18] is 48.2 µM (active).

On to `COc1cc(CNCCN2CCOCC2)ccc1OCc1ccc(Cl)cc1Cl`, for which the AC50 in experiment [19] is 17.3 µM (active).

For `COc1cccc(-n2c(S)nnc2-c2cccc(S(=O)(=O)N(C)C)c2)c1`, the AC50 in experiment [19] is 39 µM (active).

As for `Cc1ccc(Nc2nc(Oc3ccc(=O)[nH]n3)nc(N(C)C)n2)cc1`, in experiment [14], the IC50 was > 64 µM (inactive).

For the molecule `O=C(c1ccc(F)cc1)N1CCC(C(=O)N(Cc2ccccc2)c2ccccc2)CC1`, the CC50 in [1] was > 40 µM (active).

On to `CCCCOP(=O)(OCCCC)C(Nc1ccc(C(=O)OCC)cc1)c1ccncc1` (stereo not drawn), for which, in experiment [5], the CC50 is > 40 µM (active).

For `CC1(C2CC2)NC(=O)NC1=O` (stereo not drawn), in experiment [14], the IC50 is > 64 µM (inactive).

Regarding `O=C(Nc1ccncc1)Nc1ccc(F)cc1`, the EC50 was > 29.9 µM (inactive) in experiment [20] and 0.548 µM (active) in experiment [22]. Moreover, the IC50 is 4.91 µM (active) in experiment [21] and > 29.9 µM (inactive) in experiment [23].

On to `C/C(=N\O)C(=O)Nc1ccccc1`, for which the EC50 in experiment [7] and in [8] was > 350 µM (not active) in each case.

Regarding `CNCC(C)c1ccccc1` (stereo not drawn), the figures for the EC50 in experiment [20] and in [22] were > 29.9 µM (inactive) and 0.598 µM (active), respectively. Also, the IC50 in [21] is 3.54 µM (active); in [23] it was > 29.9 µM (inactive).

The values are drawn from ChEMBL document CHEMBL1201862, “PubChem BioAssay data set” (2004).
